Results taken from patent US20260139017A1, “COMPOSITIONS AND METHODS USING REELIN IN ALZHEIMER'S DISEASE” (The General Hospital Corporation, priority 2022, published 2026).

Tests used:
[1] = Surface plasmon resonance (SPR) binding of CTR-RELN peptides to heparin-coated chip
Description: Surface plasmon resonance assay (SPR) was used for performing binding kinetics using a Biacore 3000 Instrument (GE Healthcare) at 25° C. following previously published protocols (7 24) as fee-for-service by Precision Antibody (Maryland, USA). Biotin-labeled heparin (B9806, Sigma Aldrich) was covalently linked to streptavidin-coated chip and unoccupied sites were blocked with biocytin. Antigen was flowed over the chip using a range of single analyte concentrations prepared in DPBS buffer and using a flow rate of 30 μL/min. Binding of antigen to the ligand was monitored in real time to obtain on (ka) and off (kd) rates. The equilibrium constant (KD) was calculated from the observed ka and kd. Accuracy of the SPR analysis was determined via Chi square (χ2) analysis as described in the statistical analysis section. We included in the analyses the WT and H3447R peptides and peptides with the hypothetical H3447D change ([…])(SEQ ID NO:57) and the H3447K change ([…])(SEQ ID NO:58), also produced and purified by Innovagen (Sweden).
Surface plasmon resonance assay (SPR) was used for performing binding kinetics using a Biacore 3000 Instrument (GE Healthcare) at 25° C. following previously published protocols 34 24 fee-for-service by Precision Antibody (Maryland, USA). Heparin was covalently linked to streptavidin coated chip at 13 response units (RU) concentration and unoccupied sites were blocked with biocytin. Antigen was flowed over the chip using a range of single analyte concentrations prepared in DPBS buffer and using a flow rate of 30 μL/min. Binding of antigen to the ligand was monitored in real time to obtain on (ka) and off (kd) rates. The equilibrium constant (KD) was calculated from the observed ka and kd. Accuracy of the SPR analysis was determined via Chi square (2) analysis as described in the statistical analysis section.

[2] = Heparin HPLC, peak retention time in KCl elution; assay type: binding; settings: isocratic 1M KCl elution, long and short peptides
Description: […] 50 μl of 0.3 μg/μL uncleaved or cleaved WT Reelin peptide was used at 0.3 ml/min in 0.15MKCl, 10 mM PBS. 0-13.5 min: 0.15M KCl to load sample, 13.5-14.5 min: ramp to 0.5M KCl, 14.5-24.5 min: 0.5-1M KCl gradient (ramp), 24.5-45 min: 1M KCl (isocratic elution), 45-55 min: 1M KCl at 0.6 ml/min (wash), 55.0-56.0 min: ramp to 0.15M KCl at 0.3 ml/min, 56.0-59.0 min: 0.15M KCl (reset column). Fluorescence Intensities were measured at an excitation wavelength of 260 nm and emission wavelength of 290 nm, based on fluorescence properties of aromatic amino acids. To assess fluorescence properties of peptides, 15 ul of ˜0.6 ug/mL of peptide was diluted in 500 μL of 0.15MKCl, 10 mM PBS, and peak excitation and emission of peptides was calculated from the 2D graphical data.
The column chromatography method was adapted from previous research from the laboratory (2). Based on the column chromatography data, the initial protocol used a NaCl gradient from 0-1 M and a 5M salt wash to reset the HPLC column. However, the high salt gradient was corrosive to the HPLC machine parts. Therefore, KCl was considered because the […]. A lower molar concentration of a buffer with KCl could be used to disrupt heparin—Reelin CTR interactions compared to NaCl to help keep the HPLC pumps free of residual salts and potential corrosion. Since a lower concentration of salt was used, the amount of time needed at an […] hold of 1M KCl was extended until the peptide signal could not be detected before the column was equilibrated for the next sample.

VLDLr = target: T1, VLDLr (Homo sapiens, UniProt P98155); test: ELISA cell-free binding of RELN variants to VLDLr
T1 construct: purchased R&D 8444-VL
Description: Enzyme-linked immunosorbent assay (ELISA) was used to quantify changes in binding of RELN variants (media-derived full-length or CTR-RELN) to either VLDLr or ApoEr2 following an optimized version of a previously published protocol (6). Briefly, ELISA strips (DY008, R&D Systems) were coated with one ng/μL (100 μL/well) of VLDLr (8444-VL, R&D) or ApoEr2 (TP320903, OnGene) receptors diluted in 25 mM Tris HCl, 140 mM NaCl, […], two mM CaCl2), pH 7.4 (TBS-C buffer). After 18 h at four ° C. incubation, plates were blocked one h with three % BSA (22070008-6, Bioworld), 0.05% Tween-20 (Sigma Aldrich) TBS-C buffer. We assessed binding via incubation with 100 μL/well of serial dilutions of recombinant RELN protein (Ser1221-Gln2666, 8546-MR-050, R&D) or RELN variants in TBS-C buffer for one hour at room temperature. For detection, we used goat anti-mouse RELN primary antibody (LS-C793521-100, LS-Bio, 1:2,000, 100 μL/well) as primary antibody for one h at R.T. and (1:10,000; 100 μL/well, donkey anti-goat IgG H&L, HRP, ab6885, Abcam) as secondary antibody for 30 min. at R.T. Between each of the previous steps, plates were washed four times with TBS-C buffer (200 μL/well). Plates were washed three times prior to initiating the colorimetric reaction (DY008, R&D Systems). Stop solution (50 μL/well, DY008, R&D Systems) was added upon five min. incubation and the absorbance of the samples was measured at 450 nm using the Synergy 2 microplate reader (BioTek Instruments). Processing and analysis of the data was done using Gen5 1.11 software and GraphPad Prism, respectively.

RKQNYMMNFSRQHGLRRFYNRRRRSLRRYP [CTR-RELN H3447R]
heparin affinity/interaction relative to WT, in words ([1]; SPR kinetic constants): about twice | interaction/affinity with heparin relative to WT ([1]; SPR, kinetic data, vs RELN WT peptide): ~2 fold | peak retention time on heparin HPLC ([2]; listed as H3447R): increased later peak retention times | peak retention time on heparin HPLC ([2]; listed as H3447R Reelin): significantly later peak retention time | peak retention time on heparin HPLC ([2]; listed as RELN H3447R): delayed peak times | binding to VLDLr (VLDLr): unable to bind directly
